Laboratory results: the NIST ThermoML archive (doi:10.1016/j.jct.2008.03.008)
Numbers after ± are expanded uncertainties.

Test: molar enthalpy of vaporization or sublimation
Details: 298.15 K, Liquid

molar enthalpy (Vacuum sublimation drop method) [kcal/mol] | molar enthalpy (Flow calorimetry) [kcal/mol] | SMILES
13.6 ± 1.15 |  | CC(=O)c1sccc1C [2-acetyl-3-methylthiophene]
 | 15.1 ± 1.24 | CC(=O)c1cc(C)cs1 [2-acetyl-4-methylthiophene]
 | 14.8 ± 1.24 | CC(=O)c1ccc(C)s1 [2-acetyl-5-methylthiophene]
